Measured values from patent publication US20130153815A1, “POLYMER COMPRISING A DYE, NANOPARTICLE COMPRISING THE POLYMER, AND METHODS OF PREPARING THE SAME” (Agency for Science, Technology and Research, priority 2011, published 2013).

What was measured:
[1] = NIR photoluminescence emission spectra excited with a 785 nm laser diode; format: physicochemical; conditions: near-infrared region (800-1500 nm), excited at 785 nm
Experimental: (§1) The absorbance bands of these spectra still remain at 820 nm after chemical modification and hybridization with polymers. The colloidal stability and aggregation were tested by using UV absorbance. Dye-Pol 1 and Dye-Pol 2 were mixed with phosphate buffered saline (PBS) buffer. The absorbance bands remain the same after 3 days (FIG. 7). Similar phenomenon happened to MNP 1 and MNP 2 (FIG. 8). […] FIG. 9 and FIG. 10 show the emission spectra in the near-infrared region (800-1500 nm), excited at 785 nm. The emission spectrum of IR820dye-NH2 is 1002 nm, slightly blue-shifted from 1076 nm (IR-820). Dye-Pol 1 and Dye-Pol 2 show the emission highest peak at 956 nm while the emission of MNP 1 and MNP 2 are 864 and 866 nm, respectively. Dye-Pol 1 and Dye-Pol 2 absorb at 820 nm and emit at 956 nm. They display a large Stokes shift (136 nm).

[2] = UV absorption in methanol; format: physicochemical; conditions: methanol solution, 0.1 mM, 25° C.
Experimental: as §1

SMILES: CC1(C)C(=CC=C2CCCC(C=CC3=[N+](CCCCS(=O)(=O)[O-])c4ccc5ccccc5c4C3(C)C)=C2Cl)N(CCCCS(=O)(=O)[O-])c2ccc3ccccc3c21.[Na+] [IR-820]
- emission highest peak [1]: 1076 nm
- absorbance band [2]: 820 nm
